Holding throughout (assay type): cell-based
Series [1] concerns Human dendritic cells. The series is described as follows: Increase in cell size and granularity of DC (flow cytometry). The note with it: 100 μg polynucleotide, 48 hours. On the procedure:
(§1) Human dendritic cells were obtained from Clonetics (San Diego, Calif., USA) and were cultured in the medium recommended by Clonetics. DC were obtained from three different individuals (see Table 1). Major histocompatability typing was performed on each of these individuals and several of the HLA (human leukocyte antigens) types are shown.
DC were seeded in 1.0 ml at 1.0×10^5 cells/ml in 6-well flat-bottomed tissue culture plates for 48 hours with 100 μg of 6 base N1A, N1B, N2A, N2B, N3A, N3B, N4A, N4B, N5A, N5B, N6A, N6B, N7A or N7B polynucleotides. Cell size (FCS: forward side scatter) and granularity (S SC: side light scatter) were determined by flow cytometry using a FACSCalibur and analyzed using the CELLQuest Pro software (both from Becton-Dickinson, San Diego, Calif., USA). Percentage of DC showing a FCS>500 units and a SSC>400 units have been determined after treatment with 3-OH, 5-OH polynucleotides for DC isolated from three different individuals.
For orientation: A flow cytometer gives signals particle by particle.

In series [2] the test system is Human dendritic cells. The series is described as follows: Induction of IL-1beta production by DC (ELISA). The note with it: 100 μg, 48 hours. On the procedure: as §1
DC were seeded in 1.0 ml at 1.0×10^5 cells/ml in 6-well flat-bottomed tissue culture plates for 48 hours with 100 μg of 6 base N1A, N1B, N2A, N2B, N3A, N3B, N4A, N4B, N5A, N5B, N6A, N6B, N7A or N7B polynucleotides. Production of IL-1beta was determined in 100 μl of culture supernatant using a commercial ELISA (BioSource, Camarillo, Calif., USA) after 48 hours of incubation. Results are expressed as the “fold” (x) increase in IL-1beta production by treated DC compared to control cells.
A general note: An ELISA detects its analyte on a solid surface through an enzyme-linked reagent.

Series [3] relates to Human dendritic cells. The series is described as follows: Induction of IL-12 production by DC (ELISA). The note with it: 100 μg, 48 hours. On the procedure:
as §1
DC were seeded in 1.0 ml at 1.0×10^5 cells/ml in 6-well flat-bottomed tissue culture plates for 48 hours with 100 μg of 6 base N1A, N1B, N2A, N2B, N3A, N3B, N4A, N4B, N5A, N5B, N6A, N6B, N7A or N7B polynucleotides. Production of IL-12 was determined in 100 μl of culture supernatant using a commercial ELISA (BioSource) after 48 hours of incubation. Results are expressed as the “fold” (x) increase in IL-12 production by treated DC compared to control cells.

The subject of series [4] is Human dendritic cells. The series is described as follows: Induction of IFN-gamma production by DC (ELISA). The note with it: 100 μg, 48 hours. The method, then:
as §1
DC were seeded in 1.0 ml at 1.0×10^5 cells/ml in 6-well flat-bottomed tissue culture plates for 48 hours with 100 μg of6 base N1A, N1B, N2A, N2B, N3A, N3B, N4A, N4B, N5A, N5B, N6A, N6B, N7A or N7B polynucleotides. Production of IFN-gamma was determined in 100 μl of culture supernatant using a commercial ELISA (BioSource) after 48 hours of incubation. Results are expressed as the “fold” (x) increase in IFN-gamma production by treated DC compared to control cells.

Series [5] deals with Human dendritic cells. Briefly: CD40 levels at the DC cell surface (flow cytometry). The note with it: 100 μg, 48 hours. The method, then:
as §1
DC from individuals B and C were seeded in 1.0 ml at 1.0×10^5 cells/ml in 6-well flat-bottomed tissue culture plates for 48 hours with 100 μg of 6 base N1A, N1B, N2A, N2B, N3A, N3B, N4A, N4B, N5A, N5B, N6A, N6B, N7A or N7B polynucleotides. The level of CD40 at the cell surface was determined after 48 hours of incubation by flow cytometry (FACSCalibur system) using a FITC-conjugated monoclonal antibody directed to CD40 and analyzed by CELLQuest Pro (all from Becton Dickinson). Results are expressed as the percentage of CD40^hi DC following treatment. The term “CD40^hi” refers to a population of cells identified by flow cytometry as having higher than baseline expression of CD40.

Series [6] deals with Human dendritic cells. The series is described as follows: CD80 levels at the DC cell surface (flow cytometry). The note with it: 100 μg, 48 hours. On the procedure: as §1
DC from individuals B and C were seeded in 1.0 ml at 1.0×10^5 cells/ml in 6-well flat-bottomed tissue culture plates for 48 hours with 100 μg of 6 base N1A, N1B, N2A, N2B, N3A, N3B, N4A, N4B, N5A, N5B, N6A, N6B, N7A or N7B polynucleotides. The level of CD80 at the cell surface was determined after 48 hours of incubation by flow cytometry using a FITC-conjugated monoclonal antibody directed to CD80 (Serotec, Oxford, U.K.) and analyzed by CELLQuest. Results are expressed as the percentage of CD80^hi DC following treatment.

In series [7] the test system is Human dendritic cells. The series is described as follows: CD86 levels at the DC cell surface (flow cytometry). The note with it: 100 μg, 48 hours. On the procedure: as §1
DC from individuals B and C were seeded in 1.0 ml at 1.0×10^5 cells/ml in 6-well flat-bottomed tissue culture plates for 48 hours with 100 μg of 6 base N1A, N1B, N2A, N2B, N3A, N3B, N4A, N4B, N5A, N5B, N6A, N6B, N7A or N7B polynucleotides. The level of CD86 at the cell surface was determined after 48 hours of incubation by flow cytometry using a PE-conjugated monoclonal antibody directed to CD86 (Serotec) and analyzed by CELLQuest Pro. Results are expressed as the percentage of CD86^hi DC following treatment.

In series [8] the test system is Human dendritic cells. Briefly: MHC-II levels at the DC cell surface (flow cytometry). The note with it: DC from individual B; 100 μg, 48 hours. The method, then:
as §1
DC from individual B were seeded in 1.0 ml at 1.0×10^5 cells/ml in 6-well flat-bottomed tissue culture plates for 48 hours with 100 μg of 6 base N1A, N1B, N2A, N2B, N3A, N3B, N5A, N5B, N6A, N6B, N7A or N7B polynucleotides. The level of MHC II at the cell surface was determined after 48 hours of incubation by flow cytometry using a FITC-conjugated monoclonal antibody directed to MHC II (Serotec) and analyzed by CELLQuest Pro. Results are expressed as the percentage of MHC II^hi DC following treatment.

For series [9], the system named is Human dendritic cells. Briefly: Endocytosis of FITC-dextran by DC. The note with it: DC from individual B, 100 μg, 24 hours, untreated control = 100. The method, then: as §1
DC from individual B were seeded in 1.0 ml at 1.0×10^5 cells/ml in 6-well flat-bottomed tissue culture plates for 24 hours with 1 mg/ml of FITC-dextran (20 kDa; Sigma-Aldrich) in the absence or presence of 100 μg of 6 base N2A, N2B, N3A, N3B, N5A, N5B, and N6B polynucleotides at 4° C. (control cell surface binding of FITC-dextran) and 37° C. (to assess endocytosis). Cells were washed three times with ice-cold phosphate buffered saline and analyzed by flow cytometry using CELLQuest Pro. Results are expressed as relative endocytic rate (normalized Δ Mean Fluorescence Value (Δ MFV)). Δ MFV=MFV of DC exposed to FITC-dextran at 37° C.−MFV of DC exposed to FITC-dextran at 4° C. Δ MFV=(ΔMFVsequence/ΔMFVcontrol)×100.

Marks after values point to notes of the source that are not given here.

The values that follow come from patent US7371734B2, “Oligonucleotide compositions and their use for the modulation of immune responses” (Bioniche Life Sciences Inc., priority 2002, dated 2008).

On to 5′GGGGGG3′ [N5A] (unmodified DNA), for which the entries for the “Percentage of DC showing a FCS > 500 units and a SSC > 400 units” value in the series with Human dendritic cells [1] (DC isolated from individual A), in the series on Human dendritic cells [1] (DC isolated from individual B) and in the series with Human dendritic cells [1] (DC isolated from individual C) were 10%, 19% and 36%, respectively. Besides, the figures for the “IL-1beta production by DC (fold increase compared to untreated DC)” value in the series with Human dendritic cells [2] (DC isolated from individual A), in the series on Human dendritic cells [2] (DC isolated from individual B) and with Human dendritic cells [2] (DC isolated from individual C) were 1.1 fold, 1.1 fold and 1.0 fold, respectively. Also, the “IL-12 production by DC (fold increase compared to untreated DC)” value with Human dendritic cells [3] (DC isolated from individual A) was 0.9 fold; with Human dendritic cells [3] (DC isolated from individual B), 1.1 fold; in the series on Human dendritic cells [3] (DC isolated from individual C) it was 1.0 fold. Moreover, the “IFN-gamma production by DC (fold increase compared to untreated DC)” value is recorded as 1.1 fold in the series with Human dendritic cells [4] (DC isolated from individual A), 1.1 fold with Human dendritic cells [4] (DC isolated from individual B) and 1.0 fold in the series with Human dendritic cells [4] (DC isolated from individual C). For the same substance, the “The percentage of CD40^hi DC following treatment” value with Human dendritic cells [5] (DC from individual B) is 40** %; in the series with Human dendritic cells [5] (DC from individual C) it was 30** %. The “The percentage of CD80^hi DC following treatment” value in the series with Human dendritic cells [6] (DC from individual B) is given as 18%; in the series on Human dendritic cells [6] (DC from individual C), 14%. The entries for the “The percentage of CD86^hi DC following treatment” value in the series on Human dendritic cells [7] (DC from individual B) and in the series with Human dendritic cells [7] (DC from individual C) were 20% and 16%, respectively. The “The percentage of MHC-II^hi DC following treatment” value in the series on Human dendritic cells [8] is 19%. Further, in the series on Human dendritic cells [9], the “Relative endocytic rate (normalized Δ MFV)” value turned out to be 209.

As to 5′GGGGGG3′ [N5B], the “Percentage of DC showing a FCS > 500 units and a SSC > 400 units” value with Human dendritic cells [1] (DC isolated from individual A) stood at 53%; with Human dendritic cells [1] (DC isolated from individual B), 16%; with Human dendritic cells [1] (DC isolated from individual C) it was 23%. The results for the “IL-1beta production by DC (fold increase compared to untreated DC)” value with Human dendritic cells [2] (DC isolated from individual A), in the series on Human dendritic cells [2] (DC isolated from individual B) and in the series on Human dendritic cells [2] (DC isolated from individual C) were 5.0 fold, 7.5 fold and 3.7 fold, respectively. Also, the results for the “IL-12 production by DC (fold increase compared to untreated DC)” value in the series on Human dendritic cells [3] (DC isolated from individual A), in the series on Human dendritic cells [3] (DC isolated from individual B) and in the series with Human dendritic cells [3] (DC isolated from individual C) were 7.5 fold, 17.8 fold and 15.0 fold, respectively. For the same substance, the “IFN-gamma production by DC (fold increase compared to untreated DC)” value in the series with Human dendritic cells [4] (DC isolated from individual A) worked out at 3.5 fold; with Human dendritic cells [4] (DC isolated from individual B), 5.0 fold; in the series with Human dendritic cells [4] (DC isolated from individual C), 1.5 fold. Besides, the “The percentage of CD40^hi DC following treatment” value in the series with Human dendritic cells [5] (DC from individual B) is reported as 21%; with Human dendritic cells [5] (DC from individual C) it was 15%. Further, the “The percentage of CD80^hi DC following treatment” value is given as 3% in the series on Human dendritic cells [6] (DC from individual B) and 10% in the series on Human dendritic cells [6] (DC from individual C). Further, the “The percentage of CD86^hi DC following treatment” value in the series with Human dendritic cells [7] (DC from individual B) is listed as 26** %; in the series with Human dendritic cells [7] (DC from individual C) it was 31** %. The “The percentage of MHC-II^hi DC following treatment” value with Human dendritic cells [8] is reported as 18%. For the same substance, the “Relative endocytic rate (normalized Δ MFV)” value with Human dendritic cells [9] came out at 151.

Regarding 5′GGTGGG3′ [N2A], the “Percentage of DC showing a FCS > 500 units and a SSC > 400 units” value in the series with Human dendritic cells [1] (DC isolated from individual A) is given as 6%; in the series on Human dendritic cells [1] (DC isolated from individual B), 14%; in the series with Human dendritic cells [1] (DC isolated from individual C), 21%. The “IL-1beta production by DC (fold increase compared to untreated DC)” value in the series on Human dendritic cells [2] (DC isolated from individual A), in the series on Human dendritic cells [2] (DC isolated from individual B) and in the series on Human dendritic cells [2] (DC isolated from individual C) was 1.0 fold each time. The “IL-12 production by DC (fold increase compared to untreated DC)” value is given as 7.9 fold with Human dendritic cells [3] (DC isolated from individual A), 6.8 fold in the series with Human dendritic cells [3] (DC isolated from individual B) and 1.6 fold with Human dendritic cells [3] (DC isolated from individual C). The “IFN-gamma production by DC (fold increase compared to untreated DC)” value with Human dendritic cells [4] (DC isolated from individual A) amounted to 1.0 fold; with Human dendritic cells [4] (DC isolated from individual B), 1.1 fold; with Human dendritic cells [4] (DC isolated from individual C), 1.0 fold. The “The percentage of CD40^hi DC following treatment” value in the series with Human dendritic cells [5] (DC from individual B) is listed as 27** %; in the series with Human dendritic cells [5] (DC from individual C), 17%. In addition, the “The percentage of CD80^hi DC following treatment” value with Human dendritic cells [6] (DC from individual B) is 25** %; with Human dendritic cells [6] (DC from individual C) it was 18%. Also, the entries for the “The percentage of CD86^hi DC following treatment” value in the series on Human dendritic cells [7] (DC from individual B) and in the series on Human dendritic cells [7] (DC from individual C) were 16% and 26%, respectively. Besides, the “The percentage of MHC-II^hi DC following treatment” value in the series with Human dendritic cells [8] is on record as 42** %. For the same substance, the “Relative endocytic rate (normalized Δ MFV)” value in the series on Human dendritic cells [9] worked out at 334.
